{"source": "patent US20180296531A1", "about": "“STIMULATION OF 11B-HSD2 EXPRESSION TO IMPROVE HORMONAL THERAPY OF STEROID-DEPENDENT DISEASE” (THE CLEVELAND CLINIC FOUNDATION, priority 2015, published 2018)", "key": {"[1]": {"system": "LAPC4 human prostate cancer cell line", "assay": "Cell line cortisol metabolism: conversion of [3H]-cortisol to cortisone, HPLC"}, "GR protein": {"system": "GR protein", "assay": "Immunoblot of GR protein in prostate cancer cell lines", "format": "cell-based, human", "protocol": "(§1) For protein analysis, immunoblots were performed as described previously. Li et al., J Clin Endocrinol Metab 98, E1189-1197 (2013). Briefly, total cellular protein was extracted with ice cold RIPA lysis buffer (Sigma-Aldrich) containing protease inhibitors (Roche). 30-50 μg protein was separated by 8% SDS-PAGE gel and then transferred to a nitrocellulose membrane (Millipore). After incubating with the anti-11β-HSD2 antibody (Santa Cruz; 1:3000), anti-11β-HSD1 antibody (Santa Cruz; 1:1000), GR antibody (BD Biosciences; 1:1000), anti-Erlin-2 antibody (Cell Signaling Technology: 1:1000) or anti-AMFR antibody (Proteintech; 1:1000) overnight at 4° C., the appropriate secondary antibody was incubated for 1 hour at room temperature. The chemiluminescent detection system (Thermo Scientific) was used to detect the bands with peroxidase activity. An anti-β-actin antibody (Sigma-Aldrich; 1:5000) was used as a control for sample loading."}, "[2]": {"system": "LAPC4 xenografts grown in orchiectomized mice", "assay": "Xenograft cortisol metabolism: [3H]-cortisol inactivation in freshly harvested tumors", "format": "in vivo, mouse", "details": "CRPC xenograft tumors from enzalutamide-treated mice vs orchiectomy alone", "protocol": "Xenograft metabolism. LAPC4 cells (˜10^7) were injected subcutaneously with Matrigel (Corning) into surgically orchiectomized NSG mice that were implanted with DHEA pellets (5 mg/pellet, 90-day sustained-release, Innovative Research of America). Fresh xenografts were harvested and ˜40 mg xenograft tissues were minced, and cultured in IMEM with 10% FBS at 37° C. with a mixture of [^3H]-cortisol and non-radiolabeled cortisol. Aliquots of media were collected at the indicated time points, steroids were extracted and concentrated as described above."}, "AR-regulated transcripts": {"system": "AR-regulated transcripts", "assay": "qPCR of AR-regulated transcripts", "format": "cell-based, human", "details": "LAPC4, 24 hours", "protocol": "(§2) LAPC4 cells were treated with Enz for 36 days and then seeded into 12 well plates coated with poly-DL-ornithine at 50% confluence. After incubation overnight, the cells were transfected with 11β-HSD2-FLAG plasmid for 48 hours by using the TranslT®-2020 Transfection Reagent (Mirus) according to the protocol provided by the manufacturer, then maintained in phenol-red-free medium with 5% Charcoal:Dextran-stripped FBS for 48 hours before being treated with the indicated drugs. Total RNA was extracted with a GenElute Mammalian Total RNA miniprep kit (Sigma-Aldrich) and 1 μg RNA was reverse-transcribed to cDNA with the iScript cDNA Synthesis Kit (Bio-Rad). An ABI 7500 Real-Time PCR machine (Applied Biosystems) was used to perform the qPCR analysis, using iTaq Fast SYBR Green Supermix with ROX (Bio-Rad) in 96-well plates at a final reaction volume of 10 μl. The qPCR analysis was carried out in triplicate with suitable primers. Each mRNA transcript was quantitated by normalizing the sample values to RPLP0 and to vehicle treated cells (for steroid treated cells). All gene expression studies were repeated in independent experiments."}, "LAPC4 cells": {"system": "LAPC4 cells", "assay": "Cell viability assay (CellTiter-Glo)", "format": "cell-based, human", "protocol": "LAPC4 cells or the long-term Enz treated LAPC4 cells were plated in triplicate in 96 well plates coated with poly-DL-ornithine and incubated overnight, then treated with Enz and assayed in triplicate at the time points indicated using CellTiter-Glo (Promega). Viability is normalized to day 0."}, "serum corticosterone": {"system": "serum corticosterone", "assay": "Mass spectrometry of corticosterone in mouse serum", "format": "in vivo", "protocol": "Mouse serum analysis. At the endpoint of the xenograft study, mouse serum was collected. 20 μl of mouse serum and internal standard (corticosterone-d8) were precipitated with 200 μl methanol. After centrifugation, the supernatant was transferred to HPLC vials prior to mass spectrometry analysis.\n(§3) The LC-MS/MS system contains an ultra-pressure liquid chromatography system (Shimadzu Corporation, Japan) which is consisted of two LC-30AD pumps, a DGU-20A5R degasser, a CTO-30A column oven, SIL-30AC autosampler, and a system controller CBM-20A and coupled with a Qtrap 5500 mass spectrometer (AB Sciex). Data acquisition and processing were performed using Analyst® software (version 1.6.2) from ABSciex.\n(§4) Steroids were ionized using electrospray ionization in positive mode. Quantification of analytes was performed using multiple reaction monitoring. The mass transitions for corticosterone, 11-dehydrocorticosterone, and internal standard are 347.3/121.0, 345.3/121.0, and 355.3/125.0, respectively. Separation of steroids was achieved using a Zorbax Eclipse plus C18 column (Agilent) using mobile phase consisting of (A) 0.2% formic acid in water and (B) 0.2% formic acid in (methanol:acetonitrile, 60:40) with a gradient program at a flow rate of 0.2 ml/min. Sample injection volume was 10 μl."}, "11β-HSD2 protein": {"system": "11β-HSD2 protein", "assay": "Immunoblot of 11β-HSD2 protein in prostate cancer cell lines", "format": "cell-based, human", "protocol": "as §1"}, "AMFR": {"system": "AMFR", "assay": "Immunoblot of AMFR", "format": "cell-based, human", "details": "enzalutamide treatment, LAPC4 cells and patient tissues", "protocol": "as §1"}, "[3]": {"system": "GR, HSD11B2, HSD11B1 transcripts", "assay": "qPCR of GR, HSD11B2 and HSD11B1 transcripts", "format": "cell-based, human", "protocol": "as §2"}, "tumor corticosterone": {"system": "tumor corticosterone", "assay": "Mass spectrometry of corticosterone in xenograft tumors", "format": "in vivo, mouse", "protocol": "Xenograft analysis. At least 24 mg tumor tissue (n=18) was homogenized with 1 ml LC-MS grade water (Fisher) by using homogenizer. The mixture was then centrifuged. 800 μl of the supernatant was transferred to a glass tube, followed by the addition of 80 μl of 10 ng/ml internal standard (corticosterone-d8) (Steraloids). The steroids and the internal standard were extracted with methyl tert butyl ether (Across) evaporated to dryness under N2 then reconstituted with 500 μl of 50% methanol.\nas §3, §4"}, "[4]": {"details": "enzalutamide treated 11β-HSD2 mice"}, "[5]": {"details": "enzalutamide treated vector mice"}, "[6]": {"details": "long-term Enz treatment, LAPC4 and VCaP"}, "[7]": {"details": "enzalutamide-treated 11β-HSD2 tumors"}, "[8]": {"details": "enzalutamide-treated vector tumors"}}}
{"molecule": "CNC(=O)c1ccc(N2C(=S)N(c3ccc(C#N)c(C(F)(F)F)c3)C(=O)C2(C)C)cc1F", "note": "[enzalutamide]", "values": [{"measurement": "cortisol levels / conversion of [3H]-cortisol to cortisone", "setting": "[1]; long enzalutamide exposure (36 days), LAPC4, cells and media", "value": "sustains cortisol levels by retarding conversion to cortisone in cells and media"}, {"measurement": "cortisol metabolism", "setting": "[1]; short term Enz treatment (24 hours), LAPC4", "value": "does not affect cortisol metabolism"}, {"measurement": "GR protein", "setting": "GR protein; LAPC4", "value": "increase in GR protein"}, {"measurement": "GR protein", "setting": "GR protein; VCaP and MDA-PCa-2b", "value": "increase in GR protein"}, {"measurement": "inactivation of [3H]-cortisol by conversion to cortisone", "setting": "[2]", "value": "impaired capability of inactivating [^3H]-cortisol"}, {"measurement": "expression of AR-regulated genes", "setting": "AR-regulated transcripts", "value": "suppression of AR-regulated genes"}, {"measurement": "cell growth / viability", "setting": "LAPC4 cells; LAPC4, after sustained (long-term) enzalutamide treatment", "value": "Growth recovers"}, {"measurement": "cell viability", "setting": "LAPC4 cells; LAPC4 in vitro, short-term treatment", "value": "suppresses LAPC4 viability"}, {"measurement": "serum corticosterone absolute concentration", "setting": "serum corticosterone; [4]", "value": 867, "unit": "pmol/mL"}, {"measurement": "serum percentage of corticosterone", "setting": "serum corticosterone; [4]", "value": 99.85, "unit": "%"}, {"measurement": "serum corticosterone absolute concentration", "setting": "serum corticosterone; [5]", "value": 873, "unit": "pmol/mL"}, {"measurement": "serum percentage of corticosterone", "setting": "serum corticosterone; [5]", "value": 99.87, "unit": "%"}, {"measurement": "11β-HSD2 protein expression", "setting": "11β-HSD2 protein; AR-negative DU145 prostate cancer cell line", "value": "does not change 11β-HSD2 protein expression"}, {"measurement": "11β-HSD2 protein", "setting": "11β-HSD2 protein; LAPC4", "value": "Loss of 11β-HSD2 protein"}, {"measurement": "11β-HSD2 protein", "setting": "11β-HSD2 protein; MDA-PCa-2b", "value": "Loss of 11β-HSD2 protein"}, {"measurement": "11β-HSD2 protein", "setting": "11β-HSD2 protein; VCaP", "value": "Loss of 11β-HSD2 protein"}, {"measurement": "AMFR expression", "setting": "AMFR", "value": "did not consistently increase AMFR expression"}, {"measurement": "expression of GR, HSD11B2 or HSD11B1 transcripts", "setting": "[3]; LAPC4, 24 hours (acute)", "value": "no acute effect on expression of GR, HSD11B2 or HSD11B1"}, {"measurement": "GR transcript", "setting": "[3]; [6]", "value": "GR transcript increases"}, {"measurement": "HSD11B2 mRNA", "setting": "[3]; [6]", "value": "No suppression of HSD11B2 mRNA"}, {"measurement": "percentage of tumor corticosterone of corticosterone plus 11-dehydrocorticosterone", "setting": "tumor corticosterone; [7]", "value": 33, "unit": "%"}, {"measurement": "tumor corticosterone concentration", "setting": "tumor corticosterone; [7]", "value": 15.1, "unit": "pmol/g"}, {"measurement": "percentage of tumor corticosterone of corticosterone plus 11-dehydrocorticosterone", "setting": "tumor corticosterone; [8]", "value": 59, "unit": "%"}, {"measurement": "tumor corticosterone concentration", "setting": "tumor corticosterone; [8]", "value": 44.5, "unit": "pmol/g"}]}
